# Laboratory results reported in ChEMBL document CHEMBL3885861, “Open TG-GATES”.
# Organism: Rattus norvegicus
# Assay: Open TG-GATES - Regimen: Daily Repeat
# Format: toxicity, organism-based, Sprague-Dawley
# Set-up: regimen Daily Repeat, gender Male, age 6 weeks
# Settings: in vivo, po, 10 mg/kg, […], route gavage, dose level Middle; for KIDNEY_L / KIDNEY_R / KIDNEY_TOTAL: tissue Kidney; for LIVER: tissue Liver; for A/G / ALP / ALT / AST / BUN / CRE / Ca / Cl / DBIL / GLC / IP / K / LDH / Na / PL / RALB / TBIL / TC / TG / TP / gamma-GTP: tissue Plasma
structure (smiles),measurement,setting,value
Nc1c2c(nc3ccccc13)CCCC2 [TACRINE],Lym,"tissue Blood, time 28 day",79.6%
same,MCH,"tissue Blood, time 28 day",20.1 pg
same,MCHC,"tissue Blood, time 28 day",36.7%
same,MCV,"tissue Blood, time 28 day",54.7 fL
same,Mono,"tissue Blood, time 28 day",2%
same,Neu,"tissue Blood, time 28 day",16.6%
same,PT,"tissue Blood, time 28 day",16.4 s
same,Plat,"tissue Blood, time 28 day",93.2 x10_4/uL
same,RBC,"tissue Blood, time 28 day",752 x10_4/ul
same,Ret,"tissue Blood, time 28 day",2.9%
same,WBC,"tissue Blood, time 28 day",95.4 x10_2/uL
same,KIDNEY_L,time 7 day,1 g
same,KIDNEY_R,time 7 day,1.1 g
same,KIDNEY_TOTAL,time 7 day,2.1 g
same,KIDNEY_L,time 14 day,1.1 g
same,KIDNEY_R,time 14 day,1.2 g
same,KIDNEY_TOTAL,time 14 day,2.3 g
same,KIDNEY_L,time 28 day,1.2 g
same,KIDNEY_R,time 28 day,1.2 g
same,KIDNEY_TOTAL,time 28 day,2.4 g
same,LIVER,time 7 day,10.5 g
same,LIVER,time 14 day,12.6 g
same,LIVER,time 28 day,12.9 g
same,A/G,time 7 day,1.2
same,ALP,time 7 day,1555.6 IU/L
same,ALT,time 7 day,42.2 IU/L
same,AST,time 7 day,82.8 IU/L
same,BUN,time 7 day,15.8 mg/dL
same,CRE,time 7 day,0.2 mg/dL
same,Ca,time 7 day,10.6 mg/dL
same,Cl,time 7 day,108.2 meq/L
same,DBIL,time 7 day,0.004 mg/dL
same,GLC,time 7 day,180 mg/dL
same,IP,time 7 day,6.8 mg/dL
same,K,time 7 day,4.1 meq/L
same,LDH,time 7 day,235.6 IU/L
same,Na,time 7 day,141 meq/L
same,PL,time 7 day,145.2 mg/dL
same,RALB,time 7 day,3 g/dL
same,TBIL,time 7 day,0.024 mg/dL
same,TC,time 7 day,72.2 mg/dL
same,TG,time 7 day,120.8 mg/dL
same,TP,time 7 day,5.5 g/dL
same,gamma-GTP,time 7 day,1 IU/L
same,A/G,time 14 day,1.2
same,ALP,time 14 day,1291.4 IU/L
same,ALT,time 14 day,36.8 IU/L
same,AST,time 14 day,67.8 IU/L
same,BUN,time 14 day,18.4 mg/dL
same,CRE,time 14 day,0.2 mg/dL
same,Ca,time 14 day,10.8 mg/dL
same,Cl,time 14 day,108 meq/L
same,DBIL,time 14 day,0 mg/dL
same,GLC,time 14 day,185.2 mg/dL
same,IP,time 14 day,6.4 mg/dL
same,K,time 14 day,4 meq/L
same,LDH,time 14 day,168 IU/L
same,Na,time 14 day,142.6 meq/L
same,PL,time 14 day,152.6 mg/dL
same,RALB,time 14 day,3.2 g/dL
same,TBIL,time 14 day,0.004 mg/dL
same,TC,time 14 day,75 mg/dL
same,TG,time 14 day,136.2 mg/dL
same,TP,time 14 day,5.8 g/dL
same,gamma-GTP,time 14 day,1 IU/L
same,A/G,time 28 day,1.1
same,ALP,time 28 day,1046.8 IU/L
same,ALT,time 28 day,37 IU/L
same,AST,time 28 day,63.4 IU/L
same,BUN,time 28 day,18.8 mg/dL
same,CRE,time 28 day,0.2 mg/dL
same,Ca,time 28 day,10.5 mg/dL
same,Cl,time 28 day,107.4 meq/L
same,DBIL,time 28 day,0 mg/dL
same,GLC,time 28 day,188.8 mg/dL
same,IP,time 28 day,6.7 mg/dL
same,K,time 28 day,4.1 meq/L
same,LDH,time 28 day,116 IU/L
same,Na,time 28 day,141.8 meq/L
same,PL,time 28 day,142 mg/dL
same,RALB,time 28 day,3.1 g/dL
same,TBIL,time 28 day,0.006 mg/dL
same,TC,time 28 day,70.4 mg/dL
same,TG,time 28 day,121 mg/dL
same,TP,time 28 day,5.9 g/dL
same,gamma-GTP,time 28 day,1.2 IU/L
